Results on 7 compounds are retold here after patent US20050250713A1, “11,12-Cyclic thiocarbamate macrolide antibacterial agents” (priority 2004, published 2005).

Converted amounts (≈) assume the structure as drawn.

Assay in all cases: MIC, microdilution broth method (NCCLS)
Common to all, as to type: cell-based
In general terms: In broth dilution the organism is exposed to a series of concentrations in liquid medium.

The test system of one experiment is H. influenzae ATCC49247. Particulars: Haemophilus influenzae, cation adjusted Mueller-Hinton broth, 16-20 hours, read-out: MIC Values, D: H. influenzae ATCC49247. The protocol: (§1) Minimum inhibitory concentration (MIC) has been an indicator of in vitro antibacterial activity widely used in the art. The in vitro antimicrobial activity of the compounds was determined by the microdilution broth method following the test method from the National Committee for Clinical Laboratory Standards (NCCLS). This method is described in the NCCLS Document M7-A4, Vol. 17, No.2, “Methods for Dilution Antimicrobial Susceptibility Test for Bacteria that Grow Aerobically—Fourth Edition”, which is incorporated herein by reference. In this method two-fold serial dilutions of drug in cation adjusted Mueller-Hinton broth are added to wells in microdilution trays. The test organisms are prepared by adjusting the turbidity of actively growing broth cultures so that the final concentration of test organism after it is added to the wells is approximately 5×10^4 CFU/well. Following inoculation of the microdilution trays, the trays are incubated at 35 °C for 16-20 hours and then read. […] The amount of growth in the wells containing the test compound is compared with the amount of growth in the growth-control wells (no test compound) used in each tray. As set forth in Table 1, compounds of the present invention were tested against a variety of Gram positive and Gram negative pathogenic bacteria resulting in a range of activities depending on the organism tested.

The next experiment concerns S. pneumoniae ATCC49619. Particulars: Streptococcus pneumoniae, cation adjusted Mueller-Hinton broth, 16-20 hours, read-out: MIC Values, C: S. pneumoniae ATCC49619. The protocol: as §1
In a further experiment the test system is E. faecalis ATCC29212. Particulars: Enterococcus faecalis, cation adjusted Mueller-Hinton broth, 16-20 hours, read-out: MIC Values, B: E. faecalis ATCC29212. As for the experimental part:
as §1

For a further experiment, the system named is S. aureus ATCC29213. Particulars: Staphylococcus aureus, cation adjusted Mueller-Hinton broth, 16-20 hours. The protocol: as §1

With `CC[C@H]1OC(=O)[C@H](C)C(=O)[C@H](C)[C@@H](O[C@@H]2O[C@H](C)C[C@H](N(C)C)[C@H]2O)[C@](C)(OC(=O)NC/C=C/c2ccc(-c3cccnn3)cc2)C[C@@H](C)C(=O)[C@H](C)[C@H]2NC(=S)O[C@@]21C` [Compound 4], the MIC with H. influenzae ATCC49247 came out at 2 µg/mL (≈ 2.35 µM); with S. pneumoniae ATCC49619, 0.12 µg/mL (≈ 0.141 µM); in the experiment on E. faecalis ATCC29212, 0.25 µg/mL (≈ 0.293 µM); in the experiment on S. aureus ATCC29213, 0.5 µg/mL (≈ 0.587 µM).

In the case of `CC[C@H]1OC(=O)[C@H](C)C(=O)[C@H](C)[C@@H](O[C@@H]2O[C@H](C)C[C@H](N(C)C)[C@H]2O)[C@](C)(OC(=O)NC/C=C/c2cnc3ccccc3c2)C[C@@H](C)C(=O)[C@H](C)[C@H]2NC(=S)O[C@@]21C` [Compound 5], the MIC is 1 µg/mL (≈ 1.21 µM) in the experiment on H. influenzae ATCC49247, at most 0.015 µg/mL in the experiment on S. pneumoniae ATCC49619, 0.06 µg/mL (≈ 0.0727 µM) in the experiment with E. faecalis ATCC29212 and 0.25 µg/mL (≈ 0.303 µM) against S. aureus ATCC29213.

For the compound `CC[C@H]1OC(=O)[C@H](C)C(=O)[C@H](C)[C@@H](O[C@@H]2O[C@H](C)C[C@H](N(C)C)[C@H]2O)[C@](C)(OC(=O)NC/C=C/c2ccc(Br)nc2)C[C@@H](C)C(=O)[C@H](C)[C@H]2NC(=S)O[C@@]21C` [Compound 6], the MIC with H. influenzae ATCC49247 was 1 µg/mL (≈ 1.17 µM); with S. pneumoniae ATCC49619, at most 0.015 µg/mL; in the experiment with E. faecalis ATCC29212, 0.06 µg/mL (≈ 0.0703 µM); against S. aureus ATCC29213 it was 0.5 µg/mL (≈ 0.586 µM).

As to `CC[C@H]1OC(=O)[C@H](C)C(=O)[C@H](C)[C@@H](O[C@@H]2O[C@H](C)C[C@H](N(C)C)[C@H]2O)[C@](C)(OC(=O)NC/C=C/c2cnc(C3CC3)nc2)C[C@@H](C)C(=O)[C@H](C)[C@H]2NC(=S)O[C@@]21C` [Compound 7], the MIC in the experiment with H. influenzae ATCC49247 was 1 µg/mL (≈ 1.23 µM); with S. pneumoniae ATCC49619, at most 0.015 µg/mL; in the experiment with E. faecalis ATCC29212 it was 0.06 µg/mL (≈ 0.0735 µM); against S. aureus ATCC29213, 0.5 µg/mL (≈ 0.613 µM).

For the compound `CC[C@H]1OC(=O)[C@H](C)C(=O)[C@H](C)[C@@H](O[C@@H]2O[C@H](C)C[C@H](N(C)C)[C@H]2O)[C@](C)(OC(=O)OC/C=C/c2cnc3ccccc3c2)C[C@@H](C)C(=O)[C@H](C)[C@H]2NC(=S)O[C@@]21C` [Compound 9], the MIC was determined as 2 µg/mL (≈ 2.42 µM) in the experiment on H. influenzae ATCC49247, 0.06 µg/mL (≈ 0.0726 µM) in the experiment with E. faecalis ATCC29212 and 0.12 µg/mL (≈ 0.145 µM) in the experiment with S. aureus ATCC29213.

Consider `CC[C@H]1OC(=O)[C@H](C)C(=O)[C@H](C)[C@@H](O[C@@H]2O[C@H](C)C[C@H](N(C)C)[C@H]2O)[C@](C)(OC(=O)OC/C=C/c2ccc(Br)nc2)C[C@@H](C)C(=O)[C@H](C)[C@H]2NC(=S)O[C@@]21C` [Compound 10], for which the MIC in the experiment on H. influenzae ATCC49247 was 2 µg/mL (≈ 2.34 µM); in the experiment with S. pneumoniae ATCC49619, at most 0.015 µg/mL; in the experiment on E. faecalis ATCC29212, 0.12 µg/mL (≈ 0.14 µM); against S. aureus ATCC29213, 0.25 µg/mL (≈ 0.292 µM).

As for `CC[C@H]1OC(=O)[C@H](C)C(=O)[C@H](C)[C@@H](O[C@@H]2O[C@H](C)C[C@H](N(C)C)[C@H]2O)[C@](C)(OC(=O)NC/C(F)=C/c2cnc3ccccc3c2)C[C@@H](C)C(=O)[C@H](C)[C@H]2NC(=S)O[C@@]21C` [Compound 12], the MIC in the experiment on H. influenzae ATCC49247 worked out at 1 µg/mL (≈ 1.19 µM); in the experiment on S. pneumoniae ATCC49619 it was 0.03 µg/mL (≈ 0.0356 µM); in the experiment on E. faecalis ATCC29212 it was 0.12 µg/mL (≈ 0.142 µM); against S. aureus ATCC29213, 0.5 µg/mL (≈ 0.593 µM).
